Results on nine compounds are retold here after US10125078B1, “NSAID derivatives of omega-3 polyunsaturated acids as gamma secretase modulators” (Jiva Pharma, Inc., priority 2015, dated 2018).

Several values for one entry are separate records, joined by “and”; a condition that tells them apart may be missing. Equal entries are not always repeated.

The conditions of data set [1]: compared with tarenflurbil; cited from earlier work.
In data set [2] the test system is Aβ42 peptide. As to conditions: cited from earlier work.
Data set [3] addresses T1, gamma-secretase (Homo sapiens, UniProt P49768).
T1 construct: Fresh human neuroblastoma cells SHSY-5 were purchased from ATCC; host or cells: SH-SY5Y human neuroblastoma cells, untransfected
As to the kind of experiment: gamma-secretase modulating activity in cell cultures of human neuroblastoma SHSY-5 cells, intracellular Aβ x-40 by ELISA. The class given is cell-based. As to conditions: for average signal triplicates: cells incubated 18 h, ELISA OD 450 nm; for signal nomalised to cells: normalised to collected cell mass; for sign-bkgr: signal minus background. As to the method:
The gamma-secretase modulating activity of Jiva compounds were determined in Cell Cultures of fresh human neuroblastoma SHSY-5 cells. The enzyme-linked immunosorbent assay (ELISA) is one of the most commonly used, reliable, and sensitive methods for quantitating the A β peptides. The detailed methods for the recovery of both soluble and deposited A β from brain tissue and the subsequent quantitation of the peptides by ELISA are thoroughly described in literature such as Stephen D. Schmidt, et al., “Amyloid, Enzyme-linked immunosorbent assay, ELISA, Extraction, Quantification”, Methods in Molecular Biology, vol. 849, DOI 10.1007/978-1-61779-551-0_34, Springer Science+Business Media, LLC 2012; Zeljko M. Svedruzic, et al., “Modulators of γ-Secretase Activity Can Facilitate the Toxic Side-Effects and Pathogenesis of Alzheimer's Disease”, PLOS ONE, 1 Jan. 2013|Volume 8|Issue 1; Catherine R. Burton et al., “The Amyloid-β Rise and γ-Secretase Inhibitor Potency Depend on the Level of Substrate Expression” Aug. 22, 2008 The Journal of Biological Chemistry 283, 22992-23003.
The well-studied γ-secretase inhibitor, semagacestat (WIKI) was used as a positive control in the above assays.
The following are procedures used for screening gamma-secretase modulating activity of Jiva compounds in cell cultures.
Protocol for Growing SHSY-5 Cells:
Fresh human neuroblastoma cells SHSY-5 were purchased from ATCC in the […]. All SHSY-5 cells were propagated and grown in p75 flasks, following the supplier's instructions. Briefly, SH-SY5Y cells were grown to confluence in Dulbecco's Modified Eagles Medium (DMEM) supplemented with 2 mM L-glutamine, 1× nonessential amino acids, and 0.22 micrometers filtered 10% heat inactivated fetal bovine serum (FBS) in a 5% CO2 humidified incubator at 37° C. Cultures were split twice a week and cells were seeded at 2.5×10^4 cells/cm^2. The cells were detached from the bottles after two phosphate buffer washes that were followed by 5 min treatment with 0.25% trypsine solution.
Protocol for Preparation of Jiva Compounds and the Initial Screening:
Jiva compounds were dissolved under sterile conditions in different volumes of molecular biology grade dimethylsulfoxide (DMSO) so that the final concentration was 200 mM, with the goal to screen in a concentration range from 50 to 1000 μM. Thus, between 1 μL to 20 µL of DMSO solution of each Jiva compound was added to 4 mL of sterile cell media with FBS adjusted to 1%. The cells were incubated with different compounds for 18 h (i.e. overnight). Following the incubation cells were tested for viability and morphology. The first viability criteria was attachment to the surface, the second viability criteria was resistance to trypan blue uptake. Only viable cells were harvested for ELISA screening.
Confluent cells were scraped from p25 cell-culture bottles and collected in pellets by centrifugation for 5 mins at 1000 g. To measure intracellular amyloid β, the centrifugation helps in concentrating Aβ1-40 peptides for measurements. About 40 micro grams of cell can be recovered from 4 mL cell medium in p25 cell culture bottles. The cell pellets were re-suspended in RIPA buffer and incubated on ice for 30 min.
RIPA buffer means 150 mM sodium chloride; 1% NP-40; 0.5% sodium deoxycholate; 0.1% SDS; 50 mM Tris pH 8.0.
Following lysis, the cell debris was separated by centrifugation, 1 h at 40,000×g. The clear supernatant was collected for ELISA measurements that followed immediately after the centrifugation.
ELISA measurements used IBL ELISA kits for Aβ x-40 using manufacturer's protocol and supplied standards. Briefly, for each measurement 100 μL sample was prepared from 12.5 μL lysis buffer and 87.5 μL ASSAYBUF solutions in each well. ASSAYBUF solution were supplied in the kit, and used to incubate cell lysate with anti-amyloid antibody attached to the wells in ELISA plates. The plate covered with plate-lid was incubated with gentle shaking overnight at 4° C. […]

Data set [4] relates to 4 year old children. As to conditions: cited from earlier work.
In data set [5] the test system is mild AD patients. As to conditions: cited from earlier work.

Turning to `O=C(O)C1(c2ccc(-c3ccc(Cl)c(Cl)c3)c(F)c2)CC1` [CHF-5074], the brain penetration result in data set [1] is on record as “greater brain penetration”. Also, the “Aβ42 IC50” value in data set [2] is “potent”.

Take `CC/C=C\C/C=C\C/C=C\C/C=C\C/C=C\CCCCC1(C(=O)OC(C)(C)C)CC1` [JIVA 24, EPA Cyclopropyl-fibrate t-butyl Ester]: in data set [3] (7.13 microM), the average signal triplicates amounted to 0.300, the “signal nomalised to cells” value came out at 0.233 and the sign-bkgr is reported as 0.246.

As for `CC/C=C\C/C=C\C/C=C\CCCCCCCCC1(C(=O)O)CC1` [JIVA 27, ALA Cyclopropyl Fibrate], in data set [3] (20 microM), the average signal triplicates is given as 0.355, the “signal nomalised to cells” value stood at 0.201 and the sign-bkgr is listed as 0.236.

With `CC/C=C\C/C=C\C/C=C\C/C=C\C/C=C\C/C=C\CCC(=O)O` [DHA, cis,cis,cis,cis,cis,cis-4,7,10,13,16,19-docosahexaenoic acid], the “effects on cognitive function” value in data set [4] is listed as “beneficial effects”.

Turning to `C[C@@H](C(=O)O)c1ccc(-c2ccccc2)c(F)c1` [tarenflurbil], in data set [5], the “outcome of large scale clinical trials” value is given as “failed large scale clinical trials”. Moreover, in data set [2], the “potency at inhibiting formation of toxic Aβ42 peptide” value is given as “low potency”.

As to `CC(C)[C@H](O)C(=O)N[C@@H](C)C(=O)N[C@@H]1C(=O)N(C)CCc2ccccc21` [SEMAGACESTAT, semagacestat, reference compound], in data set [3] (2 microM), the average signal triplicates was 0.12, the “signal nomalised to cells” value is reported as 0.000 and the sign-bkgr is listed as 0.

Regarding `CC(C)C[C@H](C(=O)O)c1cc(-c2ccc(C(F)(F)F)cc2)cc(-c2ccc(C(F)(F)F)cc2)c1` [JNJ-40418677], the brain penetration result in data set [1] is reported as “greater brain penetration”. For the same compound, in data set [2], the “Aβ42 IC50” value is given as “potent”.

With `CC/C=C\C/C=C\C/C=C\CCCCCCCCC1(C(=O)OC(C)(C)C)CC1` [JIVA 25, ALA Cyclopropyl-fibrate t-butyl Ester], in data set [3] (20 microM), the “signal nomalised to cells” value was 0.209 and 0.130; the sign-bkgr is 0.316 and 0.173.

In the case of `CC/C=C\C/C=C\C/C=C\CCCCCCCCC(C(=O)O)C1CC1` (stereo not drawn) [JIVA 29, ALA Cyclopropyl Acetic Acid Fibrate], in data set [3] (20 microM), the average signal triplicates was found to be 0.141, the “signal nomalised to cells” value is given as 0.026 and the sign-bkgr is listed as 0.021.
